Test results from patent publication US20260138978A1, “POSITIVE ALLOSTERIC MODULATORS OF THE MUSCARINIC ACETYLCHOLINE RECEPTOR M1” (Vanderbilt University, priority 2022, published 2026).

Experiments:
human mAChRM1 [1] = target: T1, human mAChRM1 (Homo sapiens, UniProt P11229); experiment: mAChR M1 cell-based functional assay (calcium mobilization), positive allosteric modulator activity: increase in the EC20 acetylcholine response; conditions: for Emax: PAM mode; for EC50 / PAM Activity Human M1 EC50: increase in the EC20 acetylcholine response; for EC50: read-out: PAM Activity Human M1 EC50
T1 construct: host or cells: CHO-K1
T1 sequence (P11229 1-460): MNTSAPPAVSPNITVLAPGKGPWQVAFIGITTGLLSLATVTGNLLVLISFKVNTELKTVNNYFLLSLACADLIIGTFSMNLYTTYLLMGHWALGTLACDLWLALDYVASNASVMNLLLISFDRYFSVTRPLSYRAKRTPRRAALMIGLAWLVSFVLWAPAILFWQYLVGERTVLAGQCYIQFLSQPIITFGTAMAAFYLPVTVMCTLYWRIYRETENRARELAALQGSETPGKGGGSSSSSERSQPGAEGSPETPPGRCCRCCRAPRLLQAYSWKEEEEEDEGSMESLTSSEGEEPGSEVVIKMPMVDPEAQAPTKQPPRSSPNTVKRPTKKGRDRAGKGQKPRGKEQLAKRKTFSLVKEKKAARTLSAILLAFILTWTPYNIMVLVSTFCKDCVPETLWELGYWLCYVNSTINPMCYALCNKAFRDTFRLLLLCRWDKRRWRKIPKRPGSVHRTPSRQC
How it was run: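 CHO-K1 cells stably expressing human M1, loaded with Fluo-4 AM; calcium flux recorded on FDSS at 1 Hz over 300 s following compound addition. PAM activity is the concentration-dependent increase of an EC20 acetylcholine response; EC50 and Emax from four-parameter logistic fits of 11-point, 1:3 concentration series.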

human mAChRM1 [2] = target: T1, human mAChRM1; experiment: mAChR M1 cell-based functional assay (calcium mobilization), agonist activity upon compound addition, Emax relative to acetylcholine maximum; conditions: for Agonist Activity Human M1 EC50 / EC50: calcium mobilization upon compound addition; for Emax: relative to the maximum for acetylcholine
How it was run: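 CHO-K1 cells stably expressing human M1 were loaded with Fluo-4 AM for 50 min at 37 °C. Compound was added 4 s into a 300 s FDSS read at 1 Hz, over 11-point 1:3 dilution curves. Agonism was taken as a concentration-dependent rise in calcium fluorescence ratio, with Emax expressed relative to the acetylcholine maximum from four-parameter logistic fits.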

Emax (human mAChRM1 [1]) [%] | EC50 (human mAChRM1 [1]) [nM] | Agonist Activity Human M1 EC50 (human mAChRM1 [2]) | EC50 (human mAChRM1 [2]) [µM] | Emax (human mAChRM1 [2]) [%] | PAM Activity Human M1 EC50 (human mAChRM1 [1]) | Compound
62 | 1910 | inactive |  |  |  | Cn1cc2c(-c3cc(F)c(CN4Cc5ncccc5C4=O)c(C4CCCC4)c3)ccc(C(C)(C)O)c2n1 [Compound 66, 6-(2-cyclopentyl-6-fluoro-4-(7-(2-hydroxypropan-2-yl)-2-methyl-2H-indazol-4-yl)benzyl)-6,7-dihydro-5H-pyrrolo[3,4-b]pyridin-5-one]
72 | 472 |  | ≥ 10 | 8 |  | CC(C)(O)c1cc(-c2cc(F)c(CN3Cc4ncccc4C3=O)c(F)c2)cc2cccnc12 [Compound 39, 6-(2,6-difluoro-4-(8-(2-hydroxypropan-2-yl)quinolin-6-yl)benzyl)-6,7-dihydro-5H-pyrrolo[3,4-b]pyridin-5-one]
 |  | inactive |  |  | inactive | CC(C)(O)c1cc(-c2cc(F)c(CN3Cc4ncccc4C3=O)c(F)c2)cc2c1OCO2 [Compound 17, 6-(2,6-difluoro-4-(7-(2-hydroxypropan-2-yl)benzo[d][1,3]dioxol-5-yl)benzyl)-6,7-dihydro-5H-pyrrolo[3,4-b]pyridin-5-one]
39 | ≥ 10000 | inactive |  |  |  | CC(C)(O)c1cc(-c2cc(F)c(CN3Cc4ncccc4C3=O)c(F)c2)c2[nH]nnc2c1 [Compound 83, 6-(2,6-difluoro-4-(5-(2-hydroxypropan-2-yl)-1H-benzo[d][1,2,3]triazol-7-yl)benzyl)-6,7-dihydro-5H-pyrrolo[3,4-b]pyridin-5-one]
78 | 124 |  | ≥ 10 | 11 |  | Cn1cc2c(-c3cc(F)c(CN4Cc5cccc(F)c5C4=O)cc3F)ccc(C(C)(C)O)c2n1 [Compound 163, 2-(2,5-difluoro-4-(7-(2-hydroxypropan-2-yl)-2-methyl-2H-indazol-4-yl)benzyl)-7-fluoroisoindolin-1-one]
79 | 61 |  | 4.42 | 72 |  | Cn1cc2c(-c3cc(F)c(CN4Cc5cccnc5C4=O)c(C4CC4)c3)ccc(C(C)(C)O)c2n1 [Compound 133, 6-(2-cyclopropyl-6-fluoro-4-(7-(2-hydroxypropan-2-yl)-2-methyl-2H-indazol-4-yl)benzyl)-5,6-dihydro-7H-pyrrolo[3,4-b]pyridin-7-one]
76 | 1330 | inactive |  |  |  | Cc1cc(-c2ccc(C(C)(C)O)cc2)cc(F)c1CN1Cc2ncccc2C1=O [Compound 9, 6-((3-fluoro-4′-(2-hydroxypropan-2-yl)-5-methyl-[1,1′-biphenyl]-4-yl)methyl)-6,7-dihydro-5H-pyrrolo[3,4-b]pyridin-5-one]
85 | 176 |  | 4.11 | 13 |  | CCn1cc2c(-c3cc(F)c(CN4Cc5ncccc5C4=O)c(F)c3)ccc(C(C)(C)O)c2n1 [Compound 99, 6-(4-(2-ethyl-7-(2-hydroxypropan-2-yl)-2H-indazol-4-yl)-2,6-difluorobenzyl)-6,7-dihydro-5H-pyrrolo[3,4-b]pyridin-5-one]
73 | 3870 | inactive |  |  |  | CN(C)c1cc(-c2ccc(C(C)(C)O)c3nn(C)cc23)cc(F)c1CN1Cc2ncccc2C1=O [Compound 77, 6-(2-(dimethylamino)-6-fluoro-4-(7-(2-hydroxypropan-2-yl)-2-methyl-2H-indazol-4-yl)benzyl)-6,7-dihydro-5H-pyrrolo[3,4-b]pyridin-5-one]
83 | 124 |  | 1.91 | 49 |  | [2H]C([2H])([2H])n1cc2c(-c3cc(F)c(CN4Cc5ncccc5C4=O)c(F)c3)ccc(C(C)(C)O)c2n1 [Compound 4, 6-(2,6-difluoro-4-(7-(2-hydroxypropan-2-yl)-2-(methyl-d3)-2H-indazol-4-yl)benzyl)-6,7-dihydro-5H-pyrrolo[3,4-b]pyridin-5-one]
53 | 5870 | inactive |  |  |  | Cc1cc(-c2ccc(C(C)(C)O)c3ncccc23)cc(F)c1CN1Cc2ncccc2C1=O [Compound 53, 6-(2-fluoro-4-(8-(2-hydroxypropan-2-yl)quinolin-5-yl)-6-methylbenzyl)-6,7-dihydro-5H-pyrrolo[3,4-b]pyridin-5-one]
48 | ≥ 10000 | inactive |  |  |  | Cn1cc2c(C(C)(C)O)cc(-c3ccc(CN4Cc5ncccc5C4=O)cc3)cc2n1 [Compound 23, 6-(4-(4-(2-hydroxypropan-2-yl)-2-methyl-2H-indazol-6-yl)benzyl)-6,7-dihydro-5H-pyrrolo[3,4-b]pyridin-5-one]
83 | 813 | inactive |  |  |  | CC(C)(O)c1ccc(-c2cc(F)c(CN3Cc4ncccc4C3=O)c(C3CC3)c2)cc1 [Compound 10, 6-((3-cyclopropyl-5-fluoro-4′-(2-hydroxypropan-2-yl)-[1,1′-biphenyl]-4-yl)methyl)-6,7-dihydro-5H-pyrrolo[3,4-b]pyridin-5-one]
56 | ≥ 10000 | inactive |  |  |  | Cn1cc2c(-c3cc(F)c(CN4Cc5ncccc5C4=O)c(F)c3)ccc(C3(O)CNC3)c2n1 [Compound 114, 6-(2,6-Difluoro-4-(7-(3-hydroxyazetidin-3-yl)-2-methyl-2H-indazol-4-yl)benzyl)-6,7-dihydro-5H-pyrrolo[3,4-b]pyridin-5-one]
83 | 96 |  | 5.3 | 68 |  | [2H]C1([2H])c2ncccc2C(=O)N1Cc1c(F)cc(-c2ccc(C(C)(C)O)c3nn(C)cc23)cc1C1CC1 (single isomer, unassigned) [Compound 143, 6-(2-cyclopropyl-6-fluoro-4-(7-(2-hydroxypropan-2-yl)-2-methyl-2H-indazol-4-yl)benzyl)-6,7-dihydro-5H-pyrrolo[3,4-b]pyridin-5-one-7,7-d2]
49 | ≥ 10000 | inactive |  |  |  | Cn1nc(C(C)(C)O)cc1-c1cc(F)c(CN2Cc3ncccc3C2=O)c(C2CC2)c1 [Compound 68, 6-(2-cyclopropyl-6-fluoro-4-(3-(2-hydroxypropan-2-yl)-1-methyl-1H-pyrazol-5-yl)benzyl)-6,7-dihydro-5H-pyrrolo[3,4-b]pyridin-5-one]
 |  | inactive |  |  | inactive | Cc1cc(-c2cc(C(C)(C)O)c3cn(C)nc3c2)ccc1CN1Cc2ncccc2C1=O [Compound 22, 6-(4-(4-(2-hydroxypropan-2-yl)-2-methyl-2H-indazol-6-yl)-2-methylbenzyl)-6,7-dihydro-5H-pyrrolo[3,4-b]pyridin-5-one]
88 | 211 | inactive |  |  |  | Cn1cc2c(-c3cc(F)c(CN4Cc5ncccc5C4=O)c(F)c3)ccc(C(C)(O)C(F)F)c2n1 (centres unmarked) [Compound 100, 6-(4-(7-(1,1-difluoro-2-hydroxypropan-2-yl)-2-methyl-2H-indazol-4-yl)-2,6-difluorobenzyl)-6,7-dihydro-5H-pyrrolo[3,4-b]pyridin-5-one]
36 | ≥ 10000 | inactive |  |  |  | Cc1cc(-c2cc(C(C)(C)O)nn2C)ccc1CN1Cc2ncccc2C1=O [Compound 69, 6-(4-(3-(2-hydroxypropan-2-yl)-1-methyl-1H-pyrazol-5-yl)-2-methylbenzyl)-6,7-dihydro-5H-pyrrolo[3,4-b]pyridin-5-one]
47 | ≥ 10000 | inactive |  |  |  | Cn1cc2c(-c3ncc(CN4Cc5ncccc5C4=O)cn3)ccc(C(C)(C)O)c2n1 [Compound 111, 6-((2-(7-(2-hydroxypropan-2-yl)-2-methyl-2H-indazol-4-yl)pyrimidin-5-yl)methyl)-6,7-dihydro-5H-pyrrolo[3,4-b]pyridin-5-one]
81 | 76 |  | 1.4 | 22 |  | Cn1cc2c(-c3cc(F)c(CN4Cc5ncccc5C4=O)c(F)c3)ccc(C3(O)CCOCC3)c2n1 [Compound 92, 6-(2,6-difluoro-4-(7-(4-hydroxytetrahydro-2H-pyran-4-yl)-2-methyl-2H-indazol-4-yl)benzyl)-6,7-dihydro-5H-pyrrolo[3,4-b]pyridin-5-one]
86 | 284 | inactive |  |  |  | CC(C)n1cc2c(-c3cc(F)c(CN4Cc5ncccc5C4=O)c(F)c3)ccc(C(C)(C)O)c2n1 [Compound 104, 6-(2,6-difluoro-4-(7-(2-hydroxypropan-2-yl)-2-isopropyl-2H-indazol-4-yl)benzyl)-6,7-dihydro-5H-pyrrolo[3,4-b]pyridin-5-one]
